Test results taken from ChEMBL document CHEMBL1146098, “Synthesis and characterization of 3-arylquinazolinone and 3-arylquinazolinethione derivatives as selective estrogen receptor beta modulators” (J Med Chem, 2006).

Experiments:
Estrogen receptor beta [1] = target: T1, Estrogen receptor beta (Homo sapiens, UniProt Q92731)
Estrogen receptor = target: T2, Estrogen receptor (Homo sapiens, UniProt P03372)
T2 sequence (P03372 whole entry): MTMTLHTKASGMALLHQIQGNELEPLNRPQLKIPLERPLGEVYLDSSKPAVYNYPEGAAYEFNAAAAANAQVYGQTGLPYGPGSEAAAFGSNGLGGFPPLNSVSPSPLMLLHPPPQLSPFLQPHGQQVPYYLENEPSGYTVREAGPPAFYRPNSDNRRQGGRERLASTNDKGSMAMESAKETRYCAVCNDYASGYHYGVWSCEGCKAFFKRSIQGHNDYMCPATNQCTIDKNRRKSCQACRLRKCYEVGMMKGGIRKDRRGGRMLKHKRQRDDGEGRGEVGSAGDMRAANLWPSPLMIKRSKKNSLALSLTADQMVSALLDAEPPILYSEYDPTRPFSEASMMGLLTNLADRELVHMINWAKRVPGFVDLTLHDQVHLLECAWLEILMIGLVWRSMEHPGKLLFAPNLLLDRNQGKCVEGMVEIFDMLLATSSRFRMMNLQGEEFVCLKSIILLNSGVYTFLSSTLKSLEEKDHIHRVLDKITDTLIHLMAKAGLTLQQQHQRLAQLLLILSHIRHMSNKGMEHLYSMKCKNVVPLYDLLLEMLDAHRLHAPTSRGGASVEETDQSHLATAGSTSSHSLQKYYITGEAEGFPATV
Description: Displacement of [3H]estrone from ER alpha

Estrogen receptor beta [2] = target: T1, Estrogen receptor beta; remark: listed apart in the source
Description: Inhibition of ER beta-mediated transactivation of ERE in HeLa cell luciferase assay

T1 sequence (Q92731 whole entry): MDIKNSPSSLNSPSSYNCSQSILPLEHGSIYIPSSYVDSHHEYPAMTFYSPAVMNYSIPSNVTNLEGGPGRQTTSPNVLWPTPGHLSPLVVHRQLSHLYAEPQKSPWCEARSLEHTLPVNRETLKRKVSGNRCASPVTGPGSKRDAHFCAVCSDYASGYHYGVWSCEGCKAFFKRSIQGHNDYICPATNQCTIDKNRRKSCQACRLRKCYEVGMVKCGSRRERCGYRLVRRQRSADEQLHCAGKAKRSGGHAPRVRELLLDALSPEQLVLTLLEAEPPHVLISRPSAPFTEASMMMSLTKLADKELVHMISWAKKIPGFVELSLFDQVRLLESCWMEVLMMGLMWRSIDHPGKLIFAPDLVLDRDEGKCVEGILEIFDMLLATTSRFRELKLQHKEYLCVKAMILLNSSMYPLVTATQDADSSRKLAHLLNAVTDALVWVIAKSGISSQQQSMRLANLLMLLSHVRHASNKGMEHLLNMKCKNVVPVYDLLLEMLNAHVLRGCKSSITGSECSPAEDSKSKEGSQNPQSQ

Compound | IC50 (Estrogen receptor beta [1]) [µM] | IC50 (Estrogen receptor) [µM] | EC50 (Estrogen receptor beta [2]) [µM]
CCOc1cc(O)cc2ncn(-c3ccc(O)cc3)c(=O)c12 | 44.3 |  | 
O=c1c2c(O)cc(O)cc2ncn1-c1cccc(O)c1 | 3.84 | 43.8 | 0.904
CCc1nc2cc(O)cc(O)c2c(=O)n1-c1ccc(O)cc1 | 5.75 | 19.4 | 1.26
CC(C)c1nc2cc(O)cc(O)c2c(=O)n1-c1ccc(O)cc1 | 48.1 | 70.4 | 
Cc1cc(O)ccc1-n1cnc2cc(O)cc(O)c2c1=O | 0.422 | 4.38 | 0.111
O=c1c2c(O)cc(O)cc2ncn1-c1ccc(O)c(Cl)c1 | 7.21 | 55 | 1.18
CCc1cc(O)cc2ncn(-c3ccc(O)cc3)c(=O)c12 | 0.265 | 13.2 | 0.062
O=c1c2ccc(O)cc2ncn1-c1ccc(O)cc1 | 8.61 | 53.6 | 0.961
CCCc1c(O)cc2ncn(-c3ccc(O)cc3)c(=O)c2c1O | 7.3 | 10.6 | 
Oc1ccc(-n2cnc3cc(O)cc(O)c3c2=S)nc1 | 0.515 | 27.6 | 0.173
COC(=O)c1cc(O)cc2ncn(-c3ccc(O)cc3)c(=O)c12 | 9.54 | 81.3 | 9.41
C=Cc1cc(O)cc2ncn(-c3ccc(O)cc3)c(=O)c12 | 17 |  | 0.75
O=c1c2c(O)cc(O)c(I)c2ncn1-c1ccc(O)cc1 | 4.08 |  | 0.593
O=c1c2c(O)cc(O)cc2ncn1-c1ccc(O)cc1 | 0.179 | 11.1 | 0.076
Cc1nc2cc(O)cc(O)c2c(=O)n1-c1ccc(O)cc1 | 11.4 | 33.2 | 1.58
N#Cc1cc(O)cc2ncn(-c3ccc(O)cc3)c(=O)c12 | 73.7 |  | 7.58
CCc1cc(O)cc2ncn(-c3ccc(O)cc3)c(=S)c12 | 0.156 | 2.26 | 0.053
O=c1c2c(O)cc(O)cc2ncn1-c1ccc(O)cc1Cl | 0.263 | 6.25 | 0.251
Cc1cc(-n2cnc3cc(O)cc(O)c3c2=S)ccc1O | 0.658 | 2.85 | 0.16
Nc1cc(O)cc2ncn(-c3ccc(O)cc3)c(=O)c12 | 8.24 | 15.5 | 2.06
O=c1c2c(O)c(I)c(O)cc2ncn1-c1ccc(O)cc1 | 3.97 |  | 1.64
Cc1cc(O)cc2ncn(-c3ccc(O)cc3)c(=O)c12 | 0.317 | 9.63 | 0.136
O=c1c2c(O)cc(O)cc2[nH]c(=S)n1-c1ccc(O)cc1 | 6.99 | 11.1 | 1.99
O=c1c2c(O)cc(O)cc2ncn1-c1ccc(O)nc1 | 51.7 | 66.9 | 9.76

Compound | IC50 (Estrogen receptor beta [1]) [µM] | IC50 (Estrogen receptor) [µM] | EC50 (Estrogen receptor beta [2]) [µM]
CCCc1nc2cc(O)cc(O)c2c(=O)n1-c1ccc(O)cc1 | 3.22 | 5.36 | 
O=c1c2c(O)cc(O)cc2ncn1-c1ccc(O)cn1 | 3.53 | 98 | 0.358
O=c1c2c(O)c(I)c(O)c(I)c2ncn1-c1ccc(O)cc1 | 12.3 |  | 1.97
O=c1c2c(O)cc(O)cc2ncn1-c1ccc(O)c(F)c1 | 0.65 | 44.2 | 0.117
COc1cc(O)c2c(=O)n(-c3ccc(O)cc3)c(=S)[nH]c2c1 | 72.8 |  | 3.84
O=c1[nH]c2cc(O)cc(O)c2c(=O)n1-c1ccc(O)cc1 | 9.38 | 70.3 | 1.31
CCCCc1nc2cc(O)cc(O)c2c(=O)n1-c1ccc(O)cc1 | 0.249 | 0.178 | 
Oc1cc(O)c2c(=S)n(-c3ccc(O)c(F)c3)cnc2c1 | 0.102 | 3.08 | 0.02
Oc1ccc(-n2cnc3cc(O)cc(O)c3c2=S)cc1 | 0.047 | 2.64 | 0.013
O=c1c2c(O)cc(O)cc2nc(Cl)n1-c1ccc(O)cc1 | 13.4 |  | 8.78
O=c1c2c(O)cc(O)cc2ncn1-c1ccc(O)cc1F | 0.256 | 7.48 | 0.19
O=c1c2c(O)cc(O)cc2ncn1-c1ccccc1 | 18.5 | 75.6 | 1.72
O=c1c2c(OS(=O)(=O)C(F)(F)F)cc(O)cc2ncn1-c1ccc(O)cc1 | 12 |  | 3.8
COc1cc(O)c2c(=O)n(-c3ccc(O)cc3)cnc2c1 | 9.53 | 26 | 8.51
Cc1cc(-n2cnc3cc(O)cc(O)c3c2=O)ccc1O | 7.49 | 34.6 | 1.25
Cc1cc(O)cc2ncn(-c3ccc(O)cc3)c(=S)c12 | 0.079 | 1.75 | 0.222
O=c1c2c(CO)cc(O)cc2ncn1-c1ccc(O)cc1 | 0.024 | 0.121 | 4.46
Cc1c(O)cc(O)c2c(=O)n(-c3ccc(O)cc3)cnc12 | 1.27 | 15.3 | 8.87
COC(=O)c1cc(OC(C)=O)cc2ncn(-c3ccc(OC(C)=O)cc3)c(=S)c12 |  |  | 11.3
C=C(C)c1cc(O)cc2ncn(-c3ccc(O)cc3)c(=O)c12 | 2.3 | 44 | 0.729
O=c1c2ccc(O)cc2nc(-c2ccc(O)cc2)n1-c1ccc(O)cc1 | 441 | 48.5 | 
O=c1c2c(-c3ccccc3)cc(O)cc2ncn1-c1ccc(O)cc1 | 30.7 | 102 | 11.7
COc1cc(O)cc2ncn(-c3ccc(O)cc3)c(=O)c12 |  |  | 8.51
Oc1ccc(-c2coc3cc(O)cc(O)c3c2=S)cc1 [THIOGENISTEIN] | 1.34 | 55.9 | 0.014
